Results on three substances are retold here after patent US6416753B1, “Method for modulating apoptosis” (The General Hospital Corporation, priority 1996, dated 2002).

Assay [1] relates to HeLa cells. In words: Hypoxia-induced apoptosis of HeLa cells, viability by trypan blue exclusion. It is filed as cell-based. On the procedure:
(§1) Hypoxia-induced apoptosis was studied as follows. HeLa and HeLa/CrmA cells (Miura, M., et al., Proc. Natl. Acad. Sci. USA. 92:8318-8322, 1995) were seeded in 35 mm dishes at a density of 6×10^4/dish in DMEM/10% FCS and grown overnight. The medium was then changed and factors were added (IL-1Ra, R & D, Minneapolis, Minn.), IL-1 antibody (Calbiochem, San Diego, Calif.), or IL-1 type-1 receptor antibody (R & D, Minneapolis, Minn.). Dishes were placed in an anaerobic chamber with a BBL GasPack Plus (Becton-Dickenson, USA), which reduced the oxygen concentration to less than 100 p.p.m. within 90 minutes. After 16 hours, cells were removed from the chamber, immediately trypsinized and scored for viability by trypan blue exclusion. Inhibition of ^125I IL-1β binding by IL-1Ra which was added for 2 hrs at 37° C. After addition of BSA (1 mg/ml) to the medium, cells were incubated at 4° C. for 15 minutes, and then ^125IL-1β (100 ng/ml) was added at 4° C. for 1 hr. For detection of ^125IL-1β binding, cells were treated with 50 mM glycine-HCl, pH 2.6 for 1 min, and quantitated by γ-counting.
Hypoxia was produced as described in Example 1. IL-1β (100 ng/ml) was added as the cells were placed into the hypoxia chamber (90 min. are required to reach oxygen concentrations of 100 p.p.m.). […] Cells were then treated as above with glycine and radioactivity scored.

In assay [2] the target is T1, IL-1 receptor (Homo sapiens, UniProt P14778).
T1 construct: endogenous in cells; host or cells: HeLa cells
T1 sequence (P14778 18-569): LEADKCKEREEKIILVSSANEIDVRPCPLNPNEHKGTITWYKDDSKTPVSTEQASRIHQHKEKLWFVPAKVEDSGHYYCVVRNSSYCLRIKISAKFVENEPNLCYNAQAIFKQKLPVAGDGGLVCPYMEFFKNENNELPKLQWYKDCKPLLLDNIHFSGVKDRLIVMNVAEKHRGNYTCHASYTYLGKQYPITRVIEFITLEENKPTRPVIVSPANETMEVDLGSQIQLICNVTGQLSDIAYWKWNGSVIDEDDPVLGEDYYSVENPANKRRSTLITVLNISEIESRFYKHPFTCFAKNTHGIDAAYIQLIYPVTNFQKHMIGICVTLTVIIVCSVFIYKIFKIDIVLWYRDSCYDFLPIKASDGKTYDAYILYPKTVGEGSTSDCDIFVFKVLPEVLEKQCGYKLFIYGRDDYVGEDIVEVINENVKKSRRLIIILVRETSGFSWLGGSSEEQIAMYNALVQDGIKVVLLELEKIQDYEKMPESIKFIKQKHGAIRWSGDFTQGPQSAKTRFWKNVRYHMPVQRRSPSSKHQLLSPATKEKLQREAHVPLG
The assay is described as follows: Inhibition of 125I IL-1β receptor binding in HeLa cells. Conditions: IL-1Ra added for 2 hrs at 37° C. On the procedure:
as §1

Another assay relates to DRG neurons. The assay is described as follows: Trophic factor deprivation of primary DRG neurons, healthy neurons counted. It is filed as cell-based, mouse. Conditions: for Inhibition of trophic factor withdrawal-induced apoptosis: 100 ng/ml. On the procedure:
Neuronal trophic factor deprivation was assayed as follows. Post-natal day 1 mouse DRG neurons were isolated, dissociated with trypsin for one hour at 37° C., and plated in a 8 camber poly-lysine/laminin (Sigma, St. Louis, Mo.) coated slide. Wells were seeded at approximately 1000 neurons/well (8 wells/mouse). Neurons were cultured in Ham's nutrient F-12 supplemented with 20% FCS (Biowhittaker, Walkesvill, Md.), NGF (200 ng/ml) (Sigma, St. Louis, Mo.), BDNF (100 ng/ml) (Preprotech, Rocky Hill, N.J.), glutamine (2 mM), and penicillin/streptomycin. The medium was replaced daily with either trophic factor containing medium (TF(+))=20% FCS and NGF (200 ng/ml), or trophic factor deficient medium, TF(−)=serum and NGF-free medium in the presence of saturating concentration of mouse NGF monoclonal antibody (100 ng/ml) (Boehringer Mannheim, Indianapolis, Ind.), and IL-IRA (100 ng/ml unless otherwise indicated in the text). Healthy neurons were counted under a phase contrast microscope 24 and 48 hours following the media change.

For the next assay, the system named is L929 cells. The assay is described as follows: TNF-α induced cell death of L929 cells, trypan blue exclusion. Conditions: IL-1Ra 40 ng/ml. It is filed as cell-based. As for the experimental part:
After 12 hours, the cells were washed 3 times with serum free DMEM, and hydroxyurea (HU) (2.5 mM) (Sigma, St. […] Natl. Acad. Sci. U.S.A. 91: 3754 (1994)). After five hours, IL-1Ra (40 ng/ml) was added to the appropriate wells, and one hour later either TNF-α or mature IL1β were added. Twenty-four hours later, IL-1Ra was again added to the appropriate wells, and cell death was evaluated by trypan blue exclusion 60 hours after the initial addition of HU. Each condition was done three times in duplicate and 200 cells counted per well. For the photographs cells were grown on 2 well slides, and for nuclear morphology determination cells were fixed in 4% paraformaldehyde and incubated with Hoechst dye #33258 (10 μg/ml) (Sigma, St. Louis, Mo.).

Assay [3] has as its system HeLa cells. The assay is described as follows: TNF-α induced cell death of hydroxyurea (G1/S) arrested HeLa cells. It is filed as cell-based. Conditions: HU treated, G1/S phase arrested HeLa cells; IL-1Ra 40 ng/ml. On the procedure: (§2) HeLa, HeLa/CrmA, and L929 cells were seeded (2×10^4) in a 24 well plate and grown overnight in DMEM with 10% FCS. After 12 hours, the cells were washed 3 times with serum free DMEM, and hydroxyurea (HU) (2.5 mM) (Sigma, St. Louis, Mo.) was added to the HeLa and HeLa/CrmA cells Meikrantz, W., et al., Proc. Natl. Acad. Sci. U.S.A. 91: 3754 (1994)). After five hours, IL-1Ra (40 ng/ml) was added to the appropriate wells, and one hour later either TNF-α or mature IL1β were added. Twenty-four hours later, IL-1Ra was again added to the appropriate wells, and cell death was evaluated by trypan blue exclusion 60 hours after the initial addition of HU. Each condition was done three times in duplicate and 200 cells counted per well. For the photographs cells were grown on 2 well slides, and for nuclear morphology determination cells were fixed in 4% paraformaldehyde and incubated with Hoechst dye #33258 (10 μg/ml) (Sigma, St. Louis, Mo.).

Assay [4] has as its system HeLa cells. The assay is described as follows: HeLa cell death induced by TNF-α and cycloheximide. It is filed as cell-based. Conditions: data not shown.
The test system of assay [5] is HeLa cells. The assay is described as follows: Mature IL-1β induced cell death of hydroxyurea (G1/S) arrested HeLa cells. It is filed as cell-based. The settings on record: G1/S phase arrested HeLa cells. On the procedure:
as §2

In a further assay the test system is COS cells. The assay is described as follows: Cell death of COS cells transfected with Ice-lacZ / Ich-1L-lacZ / proIL-1β, round blue cells scored. It is filed as cell-based. As for the experimental part:
COS cells were plated (2×10^4) in 6-well plates in DMEM with 10% FCS. After 12 hours the wells were washed with serum and antibiotic free medium, and transfected using lipofectamine with either Ice-lacZ, Ich-1L-lacZ, βactin-lacZ(1 μg) or with proIL-1β (0.5 μg) for 3 hours. The sequence for Ich-1L is shown in FIG. 7 and the sequences of human ICE and pro- IL-1β are found respectively in Thornsberry et al., Nature 356:768-774 (1992) and in J. Immunol. 137:3644-3648, 1986. The medium was then removed and DMEM with 10% FCS added. IL-1Ra (40 ng/ml) was then added to the appropriate wells, and after one hour IL-1β (100 ng/ml) was added. X-gal reaction was performed 36 hours following the transfection and percentage of round blue (dead) cells were scored (Miura, M., et al., Cell 75: 653 (1993))

The subject of a further assay is cerebral infarct. The settings on record: rat model; Relton & Rothwell 1992; cited from earlier work.
The target of assay [6] is T1, IL-1 receptor. The assay is described as follows: IL-1 receptor binding assay (receptor down-regulation) in HeLa cells. It is filed as cell-based. The settings on record: 100 ng/ml 125I IL-1β. On the procedure: Hypoxia was produced as described in Example 1. IL-1β (100 ng/ml) was added as the cells were placed into the hypoxia chamber (90 min. are required to reach oxygen concentrations of 100 p.p.m.). IL-1 receptor binding assay: HeLa cells (10^6) were seeded in 10 cm dishes and grown overnight. Media was then exchanged containing 1 mg/ml of BSA and 100 ng/ml of ^125I IL-1β at 4° C. for 1 hr. After washing twice with cold medium, the cells were incubated with fresh warm medium at 37° C. for 0, 30, 60 and 120 minutes. Cells were then treated as above with glycine and radioactivity scored.

For the next assay, the system named is HeLa and L929. The assay is described as follows: Apoptosis of healthy proliferating cells exposed to mature IL-1β alone. It is filed as cell-based. Conditions: most healthy proliferating cells including HeLa and L929.
Assay [7] addresses IL-1 type-1 receptor on HeLa cells (UniProt P14778). In words: cell-based or functional assay.

For “IL-1Ra: a naturally occurring cytokine which binds to the IL-1 receptor, blocking IL-1 mediated signal transduction”, the “Inhibition of hypoxia-induced cell death” value in the assay with HeLa cells [1] (HeLa cells, 16 hours hypoxia) is “inhibited hypoxia-induced cell death”. Also, the “Blocking of 125I-IL-1β binding” value with IL-1 receptor [2] is “blocks”. For the same substance, the “Inhibition of neuronal apoptosis” value in the assay on DRG neurons (40 ng/ml, 24 hours) was 43.5%. Also, the “Inhibition of trophic factor withdrawal-induced apoptosis” value in the assay on DRG neurons (24 hours) came to 69.2%; in the assay with DRG neurons (48 hours), 37.8%. Further, in the assay with L929 cells, the “Protection from TNF-α induced death” value is recorded as “up to 64.9%”. In addition, the “Inhibition of TNF-α induced HeLa cell death” value in the assay with HeLa cells [3] is listed as 56.0%. The “Protection from death induced by TNF-α and cycloheximide” value with HeLa cells [4] is on record as “protected”. Further, the “Inhibition of mature IL-1β induced cell death” value in the assay with HeLa cells [5] is “inhibited”. Further, the “Inhibition of death of COS cells expressing Ice-lacZ or Ich-1L-lacZ with proIL-1β, or with extracellular TNF-α or mature IL-1β” value with COS cells (IL-1Ra 40 ng/ml) is reported as “significantly inhibited”. The “Reduction of cerebral infarct size following ischemia” value in the assay on cerebral infarct is on record as 50%.

In the case of “IL-1β: mature 17.5 kD interleukin-1β, cytokine produced by ICE cleavage of prointerleukin-1β”, the “Survival of HeLa cells preincubated with exogenous IL-1β under hypoxia” value in the assay on HeLa cells [1] (IL-1β 100 ng/ml added as cells were placed into the hypoxia chamber, control 10.1%) turned out to be 58.7%. For the same substance, in the assay with HeLa cells [5] (100 ng/ml), the “Cell death induced by exogenous mature IL-1β” value came to 83.7%. For the same substance, the “Induction of apoptosis in COS cells by the exogenous cytokine alone” value in the assay with COS cells (COS cells without Ice/Ich-1L transfection) was “did not induce apoptosis”. In the assay with COS cells (extracellular cytokine, 36 hours after transfection), the “Induction of cell death in Ice-lacZ or Ich-1L-lacZ transfected COS cells” value is reported as “efficiently induced cell death”. The “Down-regulation of the IL-1 receptor” value with IL-1 receptor [6] is on record as “significantly down-regulated”. Also, in the assay with HeLa and L929, the “Induction of apoptosis of healthy proliferating cells” value is reported as “does not induce apoptosis”.

For “mature IL-1β (from UniProt P01584 117-269) (ligand)”, in [7], the cell death of G1/S phase arrested (HU treated) HeLa cells treated with exogenous mature IL-1β was 83.7% and the survival of HeLa cells under hypoxia after preincubation with exogenous IL-1β (100 ng/ml) worked out at 58.7%.
